According to ChEMBL document CHEMBL1201862, “PubChem BioAssay data set” (2004):
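Method: 48-hour compound exposure of cells in 96-well plates, five concentrations, linear interpolation of endpoints. At the GI50, growth is halved.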 The source made the active and inactive calls. No stated cut-off is given here; in the data, active = GI50 up to about 1.1 µM and inactive = higher.

Experiments:
Test in all cases: DTP human tumour cell line panel, 48 h
786-0 = tested on: 786-0
A498 = tested on: A498
A549 = tested on: A549
ACHN = tested on: ACHN
CAKI-1 = tested on: CAKI-1
CCRF-CEM = tested on: CCRF-CEM
COLO 205 = tested on: COLO 205
DLD-1 = tested on: DLD-1
DMS-114 = tested on: DMS-114
DMS-273 = tested on: DMS-273
EKVX = tested on: EKVX
HCC 2998 = tested on: HCC 2998
HCT-15 = tested on: HCT-15
HL-60 = tested on: HL-60
HOP-18 = tested on: HOP-18
HOP-62 = tested on: HOP-62
HOP-92 = tested on: HOP-92
HT-29 = tested on: HT-29
IGROV-1 = tested on: IGROV-1
K562 = tested on: K562
KM-20L2 = tested on: KM-20L2
KM12 = tested on: KM12
LOX IMVI = tested on: LOX IMVI
LXFL 529 = tested on: LXFL 529
M14 = tested on: M14
M19-MEL = tested on: M19-MEL
MOLT-4 = tested on: MOLT-4
Malme-3M = tested on: Malme-3M
NCI-H23 = tested on: NCI-H23
NCI-H460 = tested on: NCI-H460
NCI-H522 = tested on: NCI-H522
OVCAR-3 = tested on: OVCAR-3
OVCAR-4 = tested on: OVCAR-4
OVCAR-5 = tested on: OVCAR-5
OVCAR-8 = tested on: OVCAR-8
RPMI-8226 = tested on: RPMI-8226
RXF 393 = tested on: RXF 393
RXF 631 = tested on: RXF 631
SF-268 = tested on: SF-268
SF-295 = tested on: SF-295
SF-539 = tested on: SF-539
SK-MEL-28 = tested on: SK-MEL-28
SK-MEL-2 = tested on: SK-MEL-2
SK-MEL-5 = tested on: SK-MEL-5
SK-OV-3 = tested on: SK-OV-3
SN12C = tested on: SN12C
SNB-19 = tested on: SNB-19
SNB-75 = tested on: SNB-75
SNB-78 = tested on: SNB-78
SW-620 = tested on: SW-620
TK-10 = tested on: TK-10
U-251 = tested on: U-251
UACC-257 = tested on: UACC-257
UACC-62 = tested on: UACC-62
UO-31 = tested on: UO-31
HCT-116 = tested on: HCT-116
NCI-H226 = tested on: NCI-H226
SR = tested on: SR
XF498 = tested on: XF498

`COS(=O)c1cc(Cl)cc(Cl)c1OC(=O)CSSCC(=O)Oc1c(Cl)cc(Cl)cc1S(=O)OC` (configuration not stated) was tested, and the GI50 (786-0) was 22.4 µM (inactive), the GI50 (A498) was 15.5 µM (inactive) and the GI50 (A549) was 13.2 µM (inactive). For the same compound, the GI50 (ACHN) was 21 µM (inactive), the GI50 (CAKI-1) was 26.6 µM (inactive) and the GI50 (CCRF-CEM) was 19.6 µM (inactive). For the same compound, the GI50 (COLO 205) was 22.6 µM (inactive), the GI50 (DLD-1) was 15.3 µM (inactive) and the GI50 (DMS-114) was 15.8 µM (inactive). The GI50 (DMS-273) was 12.4 µM (inactive), the GI50 (EKVX) was 20 µM (inactive) and the GI50 (HCC 2998) was 21.6 µM (inactive). For the same compound, the GI50 (HCT-15) was 14.4 µM, the GI50 (HL-60) was 22.4 µM (inactive) and the GI50 (HOP-18) was 21.6 µM (inactive). For the same compound, the GI50 (HOP-62) was > 10 µM (inactive), the GI50 (HOP-92) was 22.4 µM (inactive) and the GI50 (HT-29) was 30.4 µM (inactive). For the same compound, the GI50 (IGROV-1) was 19.4 µM (inactive), the GI50 (K562) was 20.4 µM (inactive) and the GI50 (KM-20L2) was 27.3 µM (inactive). For the same compound, the GI50 (KM12) was 14.8 µM (inactive), the GI50 (LOX IMVI) was 16 µM (inactive) and the GI50 (LXFL 529) was 21 µM (inactive). For the same compound, the GI50 (M14) was 18.8 µM (inactive), the GI50 (M19-MEL) was 20 µM (inactive) and the GI50 (MOLT-4) was 17.1 µM (inactive). The GI50 (Malme-3M) was 15.2 µM (inactive), the GI50 (NCI-H23) was 11.2 µM (inactive) and the GI50 (NCI-H460) was 8.69 µM (inactive). The GI50 (NCI-H522) was 14.2 µM (inactive), the GI50 (OVCAR-3) was 23.9 µM (inactive) and the GI50 (OVCAR-4) was 19.3 µM (inactive). The GI50 (OVCAR-5) was 16.7 µM (inactive), the GI50 (OVCAR-8) was 20.5 µM (inactive) and the GI50 (RPMI-8226) was 12.5 µM (inactive). The GI50 (RXF 393) was 15.3 µM (inactive), the GI50 (RXF 631) was 20.3 µM (inactive) and the GI50 (SF-268) was 7.26 µM (inactive). The GI50 (SF-295) was 19.5 µM (inactive), the GI50 (SF-539) was 13.8 µM (inactive) and the GI50 (SK-MEL-28) was 12.4 µM (inactive). For the same compound, the GI50 (SK-MEL-2) was 17.3 µM (inactive), the GI50 (SK-MEL-5) was 17.4 µM (inactive) and the GI50 (SK-OV-3) was 51.3 µM (inactive). For the same compound, the GI50 (SN12C) was 10.2 µM (inactive), the GI50 (SNB-19) was 5.24 µM (inactive) and the GI50 (SNB-75) was 24.7 µM (inactive). The GI50 (SNB-78) was 22.9 µM (inactive), the GI50 (SW-620) was 28.4 µM (inactive) and the GI50 (TK-10) was 34.5 µM (inactive). For the same compound, the GI50 (U-251) was 5.92 µM (inactive), the GI50 (UACC-257) was 23.2 µM (inactive) and the GI50 (UACC-62) was 6.97 µM (inactive). For the same compound, the GI50 (UO-31) was 13.2 µM (inactive).

`CCOc1ccc2[nH]c3c(C)c4ccncc4c(C)c3c2c1` was tested, and the GI50 (786-0) was 1.03 µM (active), the GI50 (A498) was 1.8 µM (inactive) and the GI50 (A549) was 1.45 µM (inactive). For the same compound, the GI50 (ACHN) was 1.07 µM (active), the GI50 (CAKI-1) was 1.69 µM (inactive) and the GI50 (CCRF-CEM) was 0.649 µM (active). For the same compound, the GI50 (COLO 205) was 1.21 µM (inactive), the GI50 (DLD-1) was 0.561 µM (active) and the GI50 (DMS-114) was 1.34 µM (inactive). The GI50 (DMS-273) was 0.394 µM (active), the GI50 (EKVX) was 1.46 µM (inactive) and the GI50 (HCC 2998) was 1.42 µM (inactive). The GI50 (HCT-116) was 0.486 µM (active), the GI50 (HCT-15) was 0.448 µM and the GI50 (HL-60) was 1.2 µM (inactive). For the same compound, the GI50 (HOP-62) was 1.08 µM (active), the GI50 (HOP-92) was 1.45 µM (inactive) and the GI50 (HT-29) was 0.71 µM (active). For the same compound, the GI50 (IGROV-1) was 1.16 µM (inactive), the GI50 (K562) was 0.377 µM (active) and the GI50 (KM-20L2) was 1.08 µM (active). The GI50 (KM12) was 1 µM (active), the GI50 (LOX IMVI) was 1.2 µM (inactive) and the GI50 (LXFL 529) was 0.698 µM (active). For the same compound, the GI50 (M14) was 1.55 µM (inactive), the GI50 (M19-MEL) was 1.51 µM (inactive) and the GI50 (MOLT-4) was 0.426 µM (active). For the same compound, the GI50 (Malme-3M) was 1.41 µM (inactive), the GI50 (NCI-H226) was 1.82 µM (inactive) and the GI50 (NCI-H23) was 1.45 µM (inactive). The GI50 (NCI-H460) was 0.451 µM (active), the GI50 (NCI-H522) was 1.45 µM (inactive) and the GI50 (OVCAR-3) was 4.27 µM (inactive). The GI50 (OVCAR-4) was 1.41 µM (inactive), the GI50 (OVCAR-5) was 1.58 µM (inactive) and the GI50 (OVCAR-8) was 0.789 µM (active). The GI50 (RPMI-8226) was 1.36 µM (inactive), the GI50 (RXF 393) was 1.54 µM (inactive) and the GI50 (RXF 631) was 1.27 µM (inactive). The GI50 (SF-268) was 1.18 µM (inactive), the GI50 (SF-295) was 1.02 µM (active) and the GI50 (SF-539) was 1.58 µM (inactive). For the same compound, the GI50 (SK-MEL-28) was 1.91 µM (inactive), the GI50 (SK-MEL-2) was 1.19 µM (inactive) and the GI50 (SK-MEL-5) was 1.51 µM (inactive). The GI50 (SK-OV-3) was 3.91 µM (inactive), the GI50 (SN12C) was 0.564 µM (active) and the GI50 (SNB-19) was 1.45 µM (inactive). The GI50 (SNB-75) was 1.71 µM (inactive), the GI50 (SNB-78) was 1.34 µM (inactive) and the GI50 (SR) was 0.37 µM (active). The GI50 (SW-620) was 0.466 µM (active), the GI50 (TK-10) was 2.12 µM (inactive) and the GI50 (U-251) was 1 µM (active). For the same compound, the GI50 (UACC-257) was 1.75 µM (inactive), the GI50 (UO-31) was 2.91 µM (inactive) and the GI50 (XF498) was 0.984 µM (active).
